Reference: patent publication US12649723B2, “Carbonohydrazonoyl dicyanide compounds comprising 2 or more aryl or heteroaryl connected via linker and use thereof” (KOREA INSTITUTE OF SCIENCE AND TECHNOLOGY, priority 2020, dated 2026)

What was measured:
tau protein = molecular target: T1, tau protein (Homo sapiens, UniProt P10636); experiment: Tau-BiFC cell model: inhibition of tau protein aggregation; type: cell-based; conditions: for remaining activity at 10 µM / remaining activity at 3 µM: 48 h, Forskolin-only group = 100% tau protein-aggregated state; for remaining activity at 10 µM: compound 10 μM, BiFC fluorescence, read-out: Response (% @10 μM); for IC50: Tau BiFC in cells, with Forskolin 30 μM, 48 hours; for remaining activity at 3 µM: compounds marked *: measured at 3 μM, read-out: Response
T1 construct: fused on or other part: Split fluorescent-protein halves for BiFC are fused to tau; In the published tau-BiFC line these are Venus VN173 and VC155
Outline: (§1)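 Aggregation was induced by 30 μM Forskolin co-applied with test compound for 48 h, with screening at 1, 3, 10 μM and dose-response at 0.03–30 μM. Nuclei were stained with Hoechst (2 μg/mL) and counted against Forskolin-only wells for cytotoxicity. Inhibition came from BiFC fluorescence relative to Forskolin-only versus untreated cells, with IC50 by nonlinear regression.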

Tau-BiFC cells = experiment: Cell viability (cytotoxicity) in tau-BiFC cells, count of stained nuclei; type: cell-based; conditions: Forskolin-only group = 100% cell viability; for Cell viability (% @10 μM): compound 10 μM; for Cell viability: compounds marked *: measured at 3 μM
Outline: as §1

T1 sequence (P10636 2-441 isoform P10636-8 limits assumed): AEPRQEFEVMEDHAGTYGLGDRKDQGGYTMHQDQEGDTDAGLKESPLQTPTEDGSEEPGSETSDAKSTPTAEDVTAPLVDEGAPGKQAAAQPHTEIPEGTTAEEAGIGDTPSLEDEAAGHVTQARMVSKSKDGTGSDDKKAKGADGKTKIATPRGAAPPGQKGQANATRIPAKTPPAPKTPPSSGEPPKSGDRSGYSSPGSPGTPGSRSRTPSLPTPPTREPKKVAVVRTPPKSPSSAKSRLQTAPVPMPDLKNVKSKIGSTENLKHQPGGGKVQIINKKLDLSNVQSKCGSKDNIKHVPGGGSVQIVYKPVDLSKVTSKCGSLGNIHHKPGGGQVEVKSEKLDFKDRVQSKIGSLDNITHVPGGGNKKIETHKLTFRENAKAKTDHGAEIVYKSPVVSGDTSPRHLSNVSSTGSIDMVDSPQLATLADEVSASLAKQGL

Structure (SMILES) | remaining activity at 10 µM (tau protein) [%] | IC50 (tau protein) [nM] | Cell viability (% @10 μM) (Tau-BiFC cells) [%] | remaining activity at 3 µM (tau protein) [%] | Cell viability (Tau-BiFC cells) [%]
N#CC(C#N)=NNc1ccc(NC(=O)c2cocn2)nc1 [Compound 113, (6-(oxazole-4-carboxamido)pyridin-3-yl)carbonohydrazonoyl dicyanide] | 0 | 200 | 147 | – | –
N#CC(C#N)=NNc1ccc(NC(=O)c2cnco2)nc1 [Compound 114, (6-(oxazole-5-carboxamido)pyridin-3-yl)carbonohydrazonoyl dicyanide] | 0 | 1500 | 149.5 | – | –
N#CC(C#N)=NNc1ccc(NC(=O)c2ccon2)nc1 [Compound 115, (6-(isoxazole-3-carboxamido)pyridin-3-yl)carbonohydrazonoyl dicyanide] | 0 | 600 | 157.6 | – | –
N#CC(C#N)=NNc1ccc(Oc2nccs2)cc1 [Compound 116, (4-(thiazol-2-yloxy)phenyl)carbonohydrazonoyl dicyanide] | 0 | 1400 | 124 | – | –
N#CC(C#N)=NNc1ccc(OCc2ccccc2)cc1 [Compound 117, (4-(benzyloxy)phenyl)carbonohydrazonoyl Dicyanide] | 16.6 | 1240 | 126.0 | – | –
N#CC(C#N)=NNc1ccc(OCc2ccc(C(F)(F)F)cc2)cc1 [Compound 118, (4-(4-(trifluoromethyl)benzyloxy)phenyl)carbonohydrazonoyl dicyanide] | 25.7 | 5750 | 82.6 | – | –
Cc1ccc(COc2ccc(NN=C(C#N)C#N)cc2)cc1 [Compound 119, (4-(4-methylbenzyloxy)phenyl)carbonohydrazonoyl dicyanide] | 38.9 | 3550 | 112.5 | – | –
COc1ccc(CCOc2ccc(NN=C(C#N)C#N)cc2)cc1 [Compound 120, (4-(4-methoxyphenethoxy)phenyl)carbonohydrazonoyl dicyanide] | 0 | 1450 | 66.2 | – | –
N#CC(C#N)=NNc1ccc(OCCc2ccc(C(F)(F)F)cc2)cc1 [Compound 121, (4-(4-(trifluoromethyl)phenethoxy)phenyl)carbonohydrazonoyl dicyanide] | 3.4 | 4610 | 72.7 | – | –
N#CC(C#N)=NNc1ccc(OCCc2ccccc2)cc1 [Compound 122, (4-phenethoxyphenyl)carbonohydrazonoyl Dicyanide] | 11.7 | 1860 | 92.9 | – | –
N#CC(C#N)=NNc1ccc(OCCc2ccc(Cl)cc2)cc1 [Compound 123, (4-(4-chlorophenethoxy)phenyl)carbonohydrazonoyl dicyanide] | 0 | 780 | 34.6 | – | –
N#CC(C#N)=NNc1ccc(OCc2cnccn2)cc1 [Compound 125, (4-(pyrazin-2-ylmethoxy)phenyl)carbonohydrazonoyl dicyanide] | 0 | 2300 | 140.5 | – | –
N#CC(C#N)=NNc1ccc(OCc2nc3ccccc3[nH]2)cc1 [Compound 126, (4-((1H-benzo[d]imidazol-2-yl)methoxy)phenyl)carbonohydrazonoyl dicyanide] | 0 | 100 | 133.2 | – | –
N#CC(C#N)=NNc1ccc(OCc2cccnn2)cc1 [Compound 127, (4-(pyridazin-3-ylmethoxy)phenyl)carbonohydrazonoyl dicyanide] | 0 | 1200 | 134.9 | – | –
N#CC(C#N)=NNc1ccc(OCc2nc3ccccc3o2)cc1 [Compound 128, (4-(benzo[d]oxazol-2-ylmethoxy)phenyl)carbonohydrazonoyl dicyanide] | 0 | 300 | 108.5 | – | –
N#CC(C#N)=NNc1ccc(OCc2nc3ccccc3s2)cc1 [Compound 129, (4-(benzo[d]thiazol-2-ylmethoxy)phenyl)carbonohydrazonoyl dicyanide] | 0 | 200 | 106.9 | – | –
N#CC(C#N)=NNc1ccc(OCc2cc3ccccc3s2)cc1 [Compound 130, (4-(benzo[b]thiophen-2-ylmethoxy)phenyl)carbonohydrazonoyl dicyanide] | 0 | – | 113 | – | –
N#CC(C#N)=NNc1ccc(OCCc2ccc(Cl)cc2)nc1 [Compound 131, (6-(4-chlorophenethoxy)pyridin-3-yl)carbonohydrazonoyl dicyanide] | 10.6 | – | 33.4 | – | –
Cc1ccc(COc2ccc(NN=C(C#N)C#N)cc2C(F)(F)F)cc1 [Compound 132, (4-(4-methylbenzyloxy)-3-(trifluoromethyl)phenyl)carbonohydrazonoyl dicyanide] | 0 | – | 39.2 | – | –
N#CC(C#N)=NNc1ccc(OCCc2ccc(Cl)cc2)c(C(F)(F)F)c1 [Compound 133, (4-(4-chlorophenethoxy)-3-(trifluoromethyl)phenyl)carbonohydrazonoyl dicyanide] | 0 | – | 39.7 | – | –
COc1ccc(CCOc2ccc(NN=C(C#N)C#N)cc2C(F)(F)F)cc1 [Compound 134, (4-(4-methoxyphenethoxy)-3-(trifluoromethyl)phenyl)carbonohydrazonoyl dicyanide] | 0 | – | 38.1 | – | –
N#CC(C#N)=NNc1ccc(OCCc2ccc(C(F)(F)F)cc2)c(C(F)(F)F)c1 [Compound 135, (3-(trifluoromethyl)-4-(4-(trifluoromethyl)phenethoxy)phenyl)carbonohydrazonoyl dicyanide] | 0 | – | 41.7 | – | –
CC(Oc1ccc(NN=C(C#N)C#N)cc1)c1ccc(C(F)(F)F)cc1 (centres unmarked) [Compound 139, (4-(1-(4-(trifluoromethyl)phenyl)ethoxy)phenyl)carbonohydrazonoyl dicyanide] | – | – | – | 39 | 123
Cc1cc(NN=C(C#N)C#N)ccc1OCc1ccccc1 [Compound 141, (4-(benzyloxy)-3-methylphenyl)carbonohydrazonoyl dicyanide] | – | 866 | – | -25 | 109
Cc1ccc(COc2ccc(NN=C(C#N)C#N)cc2C)cc1 [Compound 142, (3-methyl-4-(4-methylbenzyloxy)phenyl)carbonohydrazonoyl dicyanide] | – | 1610 | – | -5 | 111
COc1cc(NN=C(C#N)C#N)ccc1OCc1ncccn1 [Compound 161, (3-methoxy-4-(pyrimidin-2-ylmethoxy)phenyl)carbonohydrazonoyl dicyanide] | – | 109 | – | -17 | 119
COc1cc(NN=C(C#N)C#N)ccc1OCc1cscn1 [Compound 167, (3-methoxy-4-(thiazol-4-ylmethoxy)phenyl)carbonohydrazonoyl dicyanide] | – | 10 | – | -38 | 118
